Some results are limits rather than exact numbers.

One experiment relates to NCI-H929 cells. Briefly: NCI-H929 cell proliferation assay (CellTiter-Glo). The format is cell-based. The following applies: 72 h compound treatment. As to the method:
NCI-H929 Cell Proliferation Assay
Cell proliferation was measured using the CellTiter-Glo® Luminescent Cell Viability Assay. The assay involved the addition of a single reagent (CellTiter-Glo® Reagent) directly to cells cultured in serum-supplemented medium. NCI-H929 (ATCC CRL-9068) cells were cultured according to ATCC recommendations and were seeded at 3,000 cells per well.
Each compound evaluated was prepared as a DMSO stock solution (10 mM). Compounds were tested in duplicate on each plate, with a 10-point serial dilution curve (1:3 dilution). Compound treatment ([…]) was added from the compound dilution plate to the cell plate. The highest compound concentration was 10 μM (final), with a 0.1% final DMSO concentration. Plates were then incubated at 37° C., 5% CO2. After 72 h of compound treatment, cell plates were equilibrated at rt for approximately 30 mins. An equi-volume amount of CellTiter-Glo® Reagent (40 μL) was added to each well. Plates were mixed for 2 mins on an orbital shaker to induce cell lysis and then incubated at rt for 10 mins to stabilize the luminescent signal. Luminescence was recorded using an Envision plate reader according to CellTiter-Glo protocol. IC50 of each compound was calculated using GraphPad Prism by nonlinear regression analysis.
In the case of `Cc1nn(C23CC(C2)C3)c2c1-c1c(Cl)ccc3c(c(C(=O)O)n(C)c13)CCCOc1cc(cc3c1NCCC3)SCc1cc(nn1C)CSC2` (atropisomer, axis not shown; (Sa)) [Example 9B, (Sa)-(−)-(Z)-2^1-(Bicyclo[1.1.1]pentan-1-yl)-1^6-chloro-1^1,2^3,6^1-trimethyl-9^1,9^2,9^3,9^4-tetrahydro-1^1H,2^1H,6^1H-10-oxa-4,8-dithia-9(6,8)-quinolina-1(7,3)-indola-2(4,5),6(3,5)-dipyrazolacyclotridecaphane-1^2-carboxylic acid], the IC50 is not above 100 nM.

`CN1Cc2cc(n(C)n2)CSc2cc3c(c(c2)OCCCc2c(C(=O)O)n(C)c4c(c(Cl)ccc24)-c2c(nn4c2CCC4)C1)NCCC3` (atropisomer, axis not shown; (Sa)) [Example 3B, (Sa)-(−)-(Z)-1^6-Chloro-1^1,6^1,4-trimethyl-2^5,2^6,9^1,9^2,9^3,9^4-hexahydro-1^1H,2^4H,6^1H-10-oxa-8-thia-4-aza-9(6,8)-quinolina-1(7,3)-indola-2(3,2)-pyrrolo[1,2-b]pyrazola-6(3,5)-pyrazolacyclotridecaphane-1^2-carboxylic acid] displayed an IC50 not above 100 nM.

Compound `Cn1nc2cc1CSc1cc3c(c(c1)OCCCc1c(C(=O)O)n(C)c4c(c(F)ccc14)-c1c(nn4c1CCCC4)CSC2)NCCC3` (atropisomer, axis not shown; (Ra)) [Example 8A, (Ra)-(+)-(Z)-1^6-Fluoro-1^1,6^1-dimethyl-2^4,2^5,2^6,2^7,9^1,9^2,9^3,9^4-octahydro-1^1H,6 ^1H-10-oxa-4,8-dithia-9(6, 8)-quinolina-2(3,2)-pyrazolo[1,5-a]pyridina-1(7,3)-indola-6(3,5)-pyrazolacyclotridecaphane-1^2-carboxylic acid] showed an IC50 not below 1000 nM.

For `CCn1nc(C)c2c1CSCc1cc(n(C)n1)CSc1cc3c(c(c1)OCCCc1c(C(=O)O)n(C)c4c-2c(Cl)ccc14)NCCC3` (atropisomer, axis not shown; (Sa)) [Example 14B, (Sa)-(−)-(Z)-1^6-Chloro-2^1-ethyl-1^1,2^3,6^1-trimethyl-9^1,9^2,9^3,9^4-tetrahydro-1^1H,2^1H,6^1H-10-oxa-4,8-dithia-9(6,8)-quinolina-1(7,3)-indola-2(4,5),6(3,5)-dipyrazolacyclotridecaphane-1^2-carboxylic acid], the IC50 was not below 1000 nM.

For `CN1Cc2cc(n(C)n2)CCc2cc3c(c(c2)OCCCc2c(C(=O)O)n(C)c4c(c(Cl)ccc24)-c2c(nn4c2CCC4)C1)NCCC3` (atropisomer, axis not shown; (Sa)) [Example 5B, (Sa)-(−)-(Z)-1^6-Chloro-1^1,6^1,4-trimethyl-2^5,2^6,9^1,9^2,9^3,9^4-hexahydro-1^1H,2^4H,6^1H-10-oxa-4-aza-9(6,8)-quinolina-1(7,3)-indola-2(3,2)-pyrrolo[1,2-b]pyrazola-6(3,5)-pyrazolacyclotridecaphane-1^2-carboxylic acid], the IC50 is not below 1000 nM.

On to `CN1Cc2cc(n(C)n2)CCc2cc3c(c(c2)OCCCc2c(C(=O)O)n(C)c4c(c(Cl)ccc24)-c2c(nn4c2CCCC4)C1)NCCC3` (atropisomer, axis not shown; (Ra)) [Example 6A, (Ra)-(+)-(Z)-1^6-Chloro-1^1,6^1,4-trimethyl-2^4,2^5,2^6,2^7,9^1,9^2,9^3,9^4-octahydro-1^1H,6^1H-10-oxa-4-aza-9(6,8)-quinolina-2(3,2)-pyrazolo[1,5-a]pyridina-1(7,3)-indola-6(3,5)-pyrazolacyclotridecaphane-1^2-carboxylic acid], for which the IC50 is not above 100 nM.

The compound `Cn1nc2cc1CSc1cc3c(c(c1)OCCCc1c(C(=O)O)n(C)c4c(c(Cl)ccc14)-c1c(nn4c1CCCC4)CNC2)NCCC3` (atropisomer, axis not shown) [Example 12B, (Sa)-(−)-(Z)-1^6-Chloro-1^1,6^1-dimethyl-2^4,2^5,2^6,2^7,9^1,9^2,9^3,9^4-octahydro-1^1H,6^1H-10-oxa-8-thia-4-aza-9(6,8)-quinolina-2(3,2)-pyrazolo[1,5-a]pyridina-1(7,3)-indola-6(3,5)-pyrazolacyclotridecaphane-1^2-carboxylic acid] yielded an IC50 of 100 to 1000 nM.

As for `CN1Cc2cc(n(C)n2)CSc2cc3c(c(c2)OCCCc2c(C(=O)O)n(C)c4c(c(Cl)ccc24)-c2c(nn4c2CCC4)C1)NCCC3` (atropisomer, axis not shown; (Ra)) [Example 3A, (Ra)-(+)-(Z)-1^6-Chloro-1^1,6^1,4-trimethyl-2^5,2^6,9^1,9^2,9^3,9^4-hexahydro-1^1H,2^4H,6^1H-10-oxa-8-thia-4-aza-9(6,8)-quinolina-1(7,3)-indola-2(3,2)-pyrrolo[1,2-b]pyrazola-6(3,5)-pyrazolacyclotridecaphane-1^2-carboxylic acid], the IC50 is not below 1000 nM.

Still in this experiment, the particulars now being: Homo sapiens, NCI-H929, 72 h, 72 h compound treatment.
`Cn1nc2cc1CSc1cc3c(c(c1)OCCCc1c(C(=O)O)n(C)c4c(c(Cl)ccc14)-c1c(nn4c1CCCC4)CSC2)NCCC3` (single isomer, unassigned) [Example 2A, (Ra)-(+)-(Z)-1^6-chloro-1^1,6^1-dimethyl-2^4,2^5,2^6,2^7,9^1,9^2,9^3,9^4-octahydro-1^1H,6^1H-10-oxa-4,8-dithia-9(6,8)-quinolina-2(3 ,2)-pyrazolo[1,5-a]pyridina-1(7 ,3)-indola-6(3,5)-pyrazolacyclotridecaphane-1^2-carboxylic acid] came in with an IC50 not above 100 nM.

Turning to `CO[C@H]1/C=C/C[C@H](C)[C@@H](C)S(=O)(=O)NC(=O)c2ccc3c(c2)N(C[C@@H]2CC[C@H]21)C[C@@]1(CCCc2cc(Cl)ccc21)CO3` [AMG176, reference compound], the IC50 lay within 100 to 1000 nM.

`Cn1nc2cc1CSc1cc3c(c(c1)OCCCc1c(C(=O)O)n(C)c4c(c(Cl)ccc14)-c1c(nn4c1CCC4)CSC2)NCCC3` (single isomer, unassigned) [Example 1A, (Ra)-(+)-(Z)-1^6-Chloro-1^1,6^1-dimethyl-2^5,2^6,9^1,9^2,9^3,9^4-hexahydro-1^1H,2^4H,6^1H-10-oxa-4,8-dithia-9(6,8)-quinolina-1(7,3)-indola-2(3,2)-pyrrolo[1,2-b]pyrazola-6(3,5)-pyrazolacyclotridecaphane-1^2-carboxylic acid]: the IC50 was not above 100 nM.

As to `Cn1nc2cc1CSc1cc3c(c(c1)OCCCc1c(C(=O)O)n(C)c4c(c(Cl)ccc14)-c1c(nn4c1CCCC4)CSC2)NCCC3` (atropisomer, axis not shown; (Sa)) [Example 2B, (Sa)-(−)-(Z)-1^6-Chloro-1^1,6^1-dimethyl-2^4,2^5,2^6,2^7,9^1,9^2,9^3,9^4-octahydro-1^1H,6^1H-10-oxa-4,8-dithia-9(6,8)-quinolina-2(3,2)-pyrazolo[1,5-a]pyridina-1(7,3)-indola-6(3,5)-pyrazolacyclotridecaphane-1^2-carboxylic acid], the IC50 was not below 1000 nM.

The target in a further experiment is Mcl-1 (Homo sapiens, UniProt Q07820). Briefly: Mcl-1 Homogeneous Time Resolved Fluorescence (HTRF) binding assay.
Chain of Mcl-1 (Q07820 whole entry): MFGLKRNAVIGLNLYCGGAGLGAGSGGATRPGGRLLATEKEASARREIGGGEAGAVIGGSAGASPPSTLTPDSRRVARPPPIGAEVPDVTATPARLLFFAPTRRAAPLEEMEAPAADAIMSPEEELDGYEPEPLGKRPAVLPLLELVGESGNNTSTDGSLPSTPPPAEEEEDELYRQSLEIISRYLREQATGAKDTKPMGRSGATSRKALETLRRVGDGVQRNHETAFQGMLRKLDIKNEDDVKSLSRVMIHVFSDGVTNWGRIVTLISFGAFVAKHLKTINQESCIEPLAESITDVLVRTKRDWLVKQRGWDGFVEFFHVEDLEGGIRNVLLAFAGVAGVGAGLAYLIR
Conditions: not given
For the compound `Cn1nc2cc1CSc1cc3c(c(c1)OCCCc1c(C(=O)O)n(C)c4c(c(Cl)ccc14)-c1c(nn4c1CCCC4)CSC2)NCCC3` (single isomer, unassigned) [Example 2A, (Ra)-(+)-(Z)-1^6-chloro-1^1,6^1-dimethyl-2^4,2^5,2^6,2^7,9^1,9^2,9^3,9^4-octahydro-1^1H,6^1H-10-oxa-4,8-dithia-9(6,8)-quinolina-2(3 ,2)-pyrazolo[1,5-a]pyridina-1(7 ,3)-indola-6(3,5)-pyrazolacyclotridecaphane-1^2-carboxylic acid], the IC50 is less than 10 nM.

The compound `Cn1nc2cc1CSc1cc3c(c(c1)OCCCc1c(C(=O)O)n(C)c4c(c(Cl)ccc14)-c1c(nn4c1CCC4)CSC2)NCCC3` (single isomer, unassigned) [Example 1A, (Ra)-(+)-(Z)-1^6-Chloro-1^1,6^1-dimethyl-2^5,2^6,9^1,9^2,9^3,9^4-hexahydro-1^1H,2^4H,6^1H-10-oxa-4,8-dithia-9(6,8)-quinolina-1(7,3)-indola-2(3,2)-pyrrolo[1,2-b]pyrazola-6(3,5)-pyrazolacyclotridecaphane-1^2-carboxylic acid] displayed an IC50 of less than 10 nM.

For the origin of these results see patent publication US20230192720A1, “MACROCYCLIC COMPOUNDS” (ZENO MANAGEMENT, INC., priority 2019, published 2023).
